Measured values: patent publication US9248124B2, “Use of inhibitors of IκB kinase for the treatment of cancer” (Millennium Pharmaceuticals, Inc., priority 2001, dated 2016)
Entries after “also recorded” stand apart in the source; their conditions may differ.

How the values were obtained:
MM.1S cells [1] = experiment: DNA synthesis ([3H]-TdR uptake) in MM.1S cells with Dex, IL-6, Thal or IMiD3; format: cell-based, human; settings: IMiD3 0.25-1 μM, dose dependent, 48 h; FIG. 9
Protocol: (§1) Proliferation was measured as previously described (Hideshima et al., Blood 96:2943 (2000)). MM cells (3×10^4 cells/well) were incubated in 96-well culture plates (Costar, Cambridge, Mass.) in the presence of media, PS-341, compound 1 and/or Dex or recombinant human IL-6 (Genetics Institute, Cambridge, Mass.) for 48 h at 37° C. DNA synthesis was measured by [^3H]-thymidine ([^3H]-TdR, NEN Products, Boston, Mass.) uptake. Cells were pulsed with [^3H]TdR (0.5 μCi/well) during the last 8 h of 48 h cultures. All experiments were performed in triplicate.

MM.1S cells [2] = settings: previously reported, Hideshima et al. Blood 96:2943 (2000); cited from earlier work
[3] = test system: IκBα phosphorylation and degradation in MM.1S cells; experiment: Immunoblot of IκBα phosphorylation and degradation triggered by TNFα in MM.1S cells; format: cell-based, human; settings: Dex 1 μM 18 h, PS-341 5 μM 60 min, compound 1 10 μM 90 min, TNFα 5 ng/mL 5 min, FIG. 7; for TNFα-induced phosphorylation of IκBα: presence or absence of IL-6
Protocol: (§2) MM cells were cultured with PS-341 or compound 1; harvested; washed; and lysed using lysis buffer: 50 mM Tris-HCl (pH 7.4), 150 mM NaCl, 1% NP-40, 5 mM EDTA, 5 mM NaF, 2 mM Na3VO4, 1 mM PMSF, 5 μg/mL leupeptin, and 5 μg/mL aprotinin. For detection of phospho-IκBα, IκBα, phospho-MAPK, phospho-STAT3, ERK2 or alpha-tubulin, cell lysates were subjected SDS-PAGE, transferred to PVDF membrane (Bio-Rad Laboratories, Hercules, Calif.), and immunoblotted with anti-phospho-IκBα, -IκBα, -phospho-MAPK, or -phospho-STAT3 Abs (Cell Signaling, Beverly, Mass.), and anti-alpha-tubulin (Sigma) Abs.
Inhibition of IκBα phosphorylation by compound 1 was assayed in MM.1S and patient MM cells triggered by TNFα. […] To study the dose-dependent effect of compound 1, MM.1S cells were pre-treated with 1.25-40 μM compound 1 for 90 min, and then stimulated by TNFα (5 ng/mL).
The effect of Dex, compound 1, PS-341 and/or IL-6 on TNFα induced phosphorylation of IκBα in MM.1S cells was next examined. […] In contrast compound 1, in the presence or absence of IL-6, inhibits phosphorylation of IκBα. Dex inhibits TNFα-induced degradation of IκBα, whereas IL-6 blocks this effect. Both PS-341 and compound 1 inhibit degradation of IκBα, in the presence or absence of IL-6.

[4] = test system: MM.1S, U266, and RPMI8226 cell lines; experiment: DNA synthesis ([3H]-TdR uptake) in MM cell lines; format: cell-based, human; settings: 48 h; FIG. 3B
Protocol: as §1
To study the direct effect of compound 1 on MM cells, [3H]-TdR uptake was measured in MM.1S, U266, and RPMI8226 cell lines cultured for 48 h in the presence of compound 1 (1.5-50 μM).

[5] = test system: p42/44 MAPK phosphorylation; experiment: Immunoblot of IL-6 induced p42/44 MAPK phosphorylation in MM.1S cells; format: cell-based, human; settings: IL-6 50 ng/mL for 5 min, compound 1 10 μM 90 min, PS-341 5 μM 60 min, FIG. 5
Protocol: as §2

[6] = test system: ICAM-1 and VCAM-1 expression on both BMSCs and MM cells; settings: Hideshima et al., Cancer Res. 61:3071 (2001); cited from earlier work

Compound	MM.1S cell growth (MM.1S cells [2])	TNFα-induced phosphorylation of IκBα [3]	p42/44 MAPK phosphorylation [5]	further results
Nc1cccc2c1CN(C1CCC(=O)NC1=O)C2=O (stereo not shown) [IMiD3, reference compound]	inhibit	–	–	DNA synthesis in MM.1S cell (MM.1S cells [1]): significantly (p<0.001) inhibited
O=C1CCC(N2C(=O)c3ccccc3C2=O)C(=O)N1 (stereo not shown) [Thalidomide]	inhibit	–	–	–
C[C@@H]1C[C@H]2[C@@H]3CCC4=CC(=O)C=C[C@]4(C)[C@@]3(F)[C@@H](O)C[C@]2(C)[C@@]1(O)C(=O)CO [Dex, dexamethasone, reference compound]	–	does not inhibit	–	–
CC(C)C[C@H](NC(=O)[C@H](Cc1ccccc1)NC(=O)c1cnccn1)B(O)O [PS-341, reference compound]	–	does not inhibit; also recorded: enhances	inhibits	TNFα-induced degradation of IκBα [3]: inhibit; [3H]-TdR uptake in all cell lines tested [4]: completely inhibited; TNFα induction of ICAM-1 and VCAM-1 expression [6]: blocks induction
COc1cccc(-c2cc(=O)c3ccccc3o2)c1N [PD98059]	–	–	selectively inhibits	–
